Experimental data reported in the NIST ThermoML archive (doi:10.1016/j.jct.2013.12.025).
Numbers after ± are expanded uncertainties.

Assay: xn = mol fraction of the nth substance listed
Details: 101 kPa, Liquid, Vibrating tube method

C=C[Si](C)(C)O[Si](C)(C)C=C [1,3-diethenyl-1,1,3,3-tetramethyldisiloxane] + CCc1ccccc1
mass density [kg/m3]
Details | 283.15 K | 288.15 K | 293.15 K | 298.15 K | 303.15 K
x1 = 0.0501 | 871.7 ± 1 | 867.28 ± 1 | 862.84 ± 1 | 858.47 ± 1 | 854.01 ± 1
x1 = 0.1001 | 867.93 ± 1 | 863.46 ± 1 | 858.98 ± 1 | 854.58 ± 1 | 850.08 ± 1
x1 = 0.1499 | 864.35 ± 1 | 859.85 ± 1 | 855.33 ± 1 | 850.89 ± 1 | 846.35 ± 1
x1 = 0.2001 | 860.93 ± 1 | 856.41 ± 1 | 851.85 ± 1 | 847.37 ± 1 | 842.8 ± 1
x1 = 0.25 | 857.68 ± 1 | 853.12 ± 1 | 848.52 ± 1 | 844.02 ± 1 | 839.42 ± 1
x1 = 0.3 | 854.59 ± 1 | 850 ± 1 | 845.38 ± 1 | 840.85 ± 1 | 836.21 ± 1
x1 = 0.3499 | 851.64 ± 1 | 847.02 ± 1 | 842.37 ± 1 | 837.8 ± 1 | 833.13 ± 1
x1 = 0.4 | 848.82 ± 1 | 844.17 ± 1 | 839.49 ± 1 | 834.91 ± 1 | 830.22 ± 1
x1 = 0.4501 | 846.13 ± 1 | 841.46 ± 1 | 836.76 ± 1 | 832.14 ± 1 | 827.42 ± 1
x1 = 0.5 | 843.56 ± 1 | 838.86 ± 1 | 834.13 ± 1 | 829.5 ± 1 | 824.76 ± 1
x1 = 0.5503 | 841.09 ± 1 | 836.39 ± 1 | 831.62 ± 1 | 826.96 ± 1 | 822.2 ± 1
x1 = 0.6 | 838.73 ± 1 | 834.01 ± 1 | 829.22 ± 1 | 824.53 ± 1 | 819.75 ± 1
x1 = 0.6501 | 836.45 ± 1 | 831.7 ± 1 | 826.89 ± 1 | 822.19 ± 1 | 817.38 ± 1
x1 = 0.6999 | 834.3 ± 1 | 829.53 ± 1 | 824.71 ± 1 | 819.97 ± 1 | 815.14 ± 1
x1 = 0.7502 | 832.18 ± 1 | 827.39 ± 1 | 822.55 ± 1 | 817.79 ± 1 | 812.94 ± 1
x1 = 0.8001 | 830.16 ± 1 | 825.33 ± 1 | 820.48 ± 1 | 815.7 ± 1 | 810.84 ± 1
x1 = 0.85 | 828.22 ± 1 | 823.42 ± 1 | 818.54 ± 1 | 813.71 ± 1 | 808.83 ± 1
x1 = 0.8999 | 826.37 ± 1 | 821.53 ± 1 | 816.65 ± 1 | 811.81 ± 1 | 806.91 ± 1
x1 = 0.9498 | 824.65 ± 1 | 819.79 ± 1 | 814.89 ± 1 | 810.02 ± 1 | 805.11 ± 1
x1 = 1 | 822.79 ± 1 | 817.88 ± 1 | 812.97 ± 1 | 808.11 ± 1 | 803.18 ± 1

C=C[Si](C)(C)O[Si](C)(C)C=C [1,3-diethenyl-1,1,3,3-tetramethyldisiloxane] + COc1ccccc1
mass density [kg/m3]
Details | 283.15 K | 288.15 K | 293.15 K | 298.15 K | 303.15 K
x1 = 0.0501 | 987.07 ± 1 | 982.37 ± 1 | 977.74 ± 1 | 973.02 ± 1 | 968.3 ± 1
x1 = 0.1 | 972.12 ± 1 | 967.42 ± 1 | 962.75 ± 1 | 958.01 ± 1 | 953.27 ± 1
x1 = 0.15 | 958.3 ± 1 | 953.58 ± 1 | 948.89 ± 1 | 944.14 ± 1 | 939.38 ± 1
x1 = 0.2004 | 945.4 ± 1 | 940.66 ± 1 | 935.96 ± 1 | 931.19 ± 1 | 926.42 ± 1
x1 = 0.2499 | 933.62 ± 1 | 928.87 ± 1 | 924.15 ± 1 | 919.36 ± 1 | 914.57 ± 1
x1 = 0.3 | 922.54 ± 1 | 917.77 ± 1 | 913.04 ± 1 | 908.24 ± 1 | 903.45 ± 1
x1 = 0.35 | 912.24 ± 1 | 907.47 ± 1 | 902.73 ± 1 | 897.91 ± 1 | 893.1 ± 1
x1 = 0.3997 | 902.67 ± 1 | 897.88 ± 1 | 893.12 ± 1 | 888.29 ± 1 | 883.45 ± 1
x1 = 0.4499 | 893.63 ± 1 | 888.81 ± 1 | 884.04 ± 1 | 879.2 ± 1 | 874.35 ± 1
x1 = 0.5001 | 885.14 ± 1 | 880.31 ± 1 | 875.53 ± 1 | 870.68 ± 1 | 865.82 ± 1
x1 = 0.5499 | 877.24 ± 1 | 872.4 ± 1 | 867.62 ± 1 | 862.75 ± 1 | 857.88 ± 1
x1 = 0.6 | 869.73 ± 1 | 864.89 ± 1 | 860.09 ± 1 | 855.21 ± 1 | 850.33 ± 1
x1 = 0.6499 | 862.68 ± 1 | 857.84 ± 1 | 853.04 ± 1 | 848.15 ± 1 | 843.25 ± 1
x1 = 0.6999 | 856.02 ± 1 | 851.16 ± 1 | 846.35 ± 1 | 841.46 ± 1 | 836.55 ± 1
x1 = 0.7499 | 849.72 ± 1 | 844.85 ± 1 | 840.03 ± 1 | 835.13 ± 1 | 830.23 ± 1
x1 = 0.8 | 843.72 ± 1 | 838.85 ± 1 | 834.02 ± 1 | 829.11 ± 1 | 824.19 ± 1
x1 = 0.8499 | 838.07 ± 1 | 833.19 ± 1 | 828.35 ± 1 | 823.44 ± 1 | 818.52 ± 1
x1 = 0.8998 | 832.69 ± 1 | 827.81 ± 1 | 822.98 ± 1 | 818.06 ± 1 | 813.14 ± 1
x1 = 0.9499 | 827.56 ± 1 | 822.67 ± 1 | 817.83 ± 1 | 812.91 ± 1 | 808 ± 1
x1 = 1 | 822.67 ± 1 | 817.77 ± 1 | 812.92 ± 1 | 808 ± 1 | 803.07 ± 1

C=C[Si](C)(C)O[Si](C)(C)C=C [1,3-diethenyl-1,1,3,3-tetramethyldisiloxane] + Clc1ccccc1
mass density [kg/m3]
Details | 283.15 K | 288.15 K | 293.15 K | 298.15 K | 303.15 K
x1 = 0.05 | 1088.46 ± 1 | 1083.08 ± 1 | 1077.71 ± 1 | 1072.36 ± 1 | 1066.76 ± 1
x1 = 0.0998 | 1062.49 ± 1 | 1057.12 ± 1 | 1051.77 ± 1 | 1046.38 ± 1 | 1040.76 ± 1
x1 = 0.15 | 1038.61 ± 1 | 1033.26 ± 1 | 1027.97 ± 1 | 1022.56 ± 1 | 1017.01 ± 1
x1 = 0.1996 | 1017.1 ± 1 | 1011.78 ± 1 | 1006.49 ± 1 | 1001.12 ± 1 | 995.49 ± 1
x1 = 0.25 | 997.1 ± 1 | 991.8 ± 1 | 986.55 ± 1 | 981.23 ± 1 | 975.62 ± 1
x1 = 0.2999 | 978.91 ± 1 | 973.63 ± 1 | 968.41 ± 1 | 963.12 ± 1 | 957.62 ± 1
x1 = 0.35 | 962.04 ± 1 | 956.8 ± 1 | 951.57 ± 1 | 946.3 ± 1 | 940.79 ± 1
x1 = 0.3999 | 946.48 ± 1 | 941.25 ± 1 | 936.1 ± 1 | 930.87 ± 1 | 925.47 ± 1
x1 = 0.4496 | 932.12 ± 1 | 926.93 ± 1 | 921.78 ± 1 | 916.57 ± 1 | 911.17 ± 1
x1 = 0.4999 | 918.61 ± 1 | 913.45 ± 1 | 908.32 ± 1 | 903.14 ± 1 | 897.77 ± 1
x1 = 0.5499 | 906.09 ± 1 | 900.94 ± 1 | 895.84 ± 1 | 890.68 ± 1 | 885.33 ± 1
x1 = 0.6 | 894.37 ± 1 | 889.27 ± 1 | 884.19 ± 1 | 879.04 ± 1 | 873.73 ± 1
x1 = 0.6469 | 884.06 ± 1 | 878.98 ± 1 | 873.94 ± 1 | 868.82 ± 1 | 863.55 ± 1
x1 = 0.6998 | 873.18 ± 1 | 868.11 ± 1 | 863.11 ± 1 | 858.02 ± 1 | 852.81 ± 1
x1 = 0.7499 | 863.47 ± 1 | 858.44 ± 1 | 853.45 ± 1 | 848.41 ± 1 | 843.25 ± 1
x1 = 0.7997 | 854.39 ± 1 | 849.39 ± 1 | 844.44 ± 1 | 839.42 ± 1 | 834.3 ± 1
x1 = 0.8499 | 845.78 ± 1 | 840.8 ± 1 | 835.87 ± 1 | 830.88 ± 1 | 825.82 ± 1
x1 = 0.8996 | 837.7 ± 1 | 832.75 ± 1 | 827.85 ± 1 | 822.88 ± 1 | 817.86 ± 1
x1 = 0.9497 | 830 ± 1 | 825.08 ± 1 | 820.22 ± 1 | 815.27 ± 1 | 810.3 ± 1
x1 = 1 | 822.68 ± 1 | 817.77 ± 1 | 812.94 ± 1 | 808.01 ± 1 | 803.06 ± 1

C=C[Si](C)(C)O[Si](C)(C)C=C [1,3-diethenyl-1,1,3,3-tetramethyldisiloxane] + Fc1ccccc1
mass density [kg/m3]
Details | 283.15 K | 288.15 K | 293.15 K | 298.15 K | 303.15 K
x1 = 0.05 | 1013.6 ± 1 | 1007.66 ± 1 | 1001.73 ± 1 | 995.86 ± 1 | 989.74 ± 1
x1 = 0.1 | 992.96 ± 1 | 987.08 ± 1 | 981.21 ± 1 | 975.37 ± 1 | 969.31 ± 1
x1 = 0.15 | 974.59 ± 1 | 968.74 ± 1 | 962.94 ± 1 | 957.17 ± 1 | 951.1 ± 1
x1 = 0.1993 | 958.3 ± 1 | 952.51 ± 1 | 946.77 ± 1 | 941.03 ± 1 | 934.98 ± 1
x1 = 0.25 | 943.25 ± 1 | 937.46 ± 1 | 931.8 ± 1 | 926.13 ± 1 | 920.12 ± 1
x1 = 0.2999 | 929.85 ± 1 | 924.19 ± 1 | 918.57 ± 1 | 913 ± 1 | 907.17 ± 1
x1 = 0.35 | 917.58 ± 1 | 911.93 ± 1 | 906.37 ± 1 | 900.84 ± 1 | 895 ± 1
x1 = 0.4 | 906.43 ± 1 | 900.85 ± 1 | 895.33 ± 1 | 889.86 ± 1 | 884.09 ± 1
x1 = 0.45 | 896.19 ± 1 | 890.66 ± 1 | 885.22 ± 1 | 879.75 ± 1 | 874.12 ± 1
x1 = 0.5 | 886.76 ± 1 | 881.29 ± 1 | 875.91 ± 1 | 870.51 ± 1 | 864.97 ± 1
x1 = 0.5501 | 878.08 ± 1 | 872.69 ± 1 | 867.38 ± 1 | 862.04 ± 1 | 856.56 ± 1
x1 = 0.6 | 870.07 ± 1 | 864.73 ± 1 | 859.45 ± 1 | 854.19 ± 1 | 848.77 ± 1
x1 = 0.6501 | 862.6 ± 1 | 857.33 ± 1 | 852.11 ± 1 | 846.89 ± 1 | 841.53 ± 1
x1 = 0.7 | 855.69 ± 1 | 850.46 ± 1 | 845.29 ± 1 | 840.15 ± 1 | 834.87 ± 1
x1 = 0.7501 | 849.23 ± 1 | 844.06 ± 1 | 838.93 ± 1 | 833.84 ± 1 | 828.63 ± 1
x1 = 0.8 | 843.23 ± 1 | 838.1 ± 1 | 833.02 ± 1 | 827.99 ± 1 | 822.84 ± 1
x1 = 0.85 | 837.56 ± 1 | 832.51 ± 1 | 827.46 ± 1 | 822.49 ± 1 | 817.39 ± 1
x1 = 0.8998 | 832.28 ± 1 | 827.28 ± 1 | 822.3 ± 1 | 817.36 ± 1 | 812.32 ± 1
x1 = 0.95 | 827.28 ± 1 | 822.33 ± 1 | 817.38 ± 1 | 812.49 ± 1 | 807.52 ± 1
x1 = 1 | 822.56 ± 1 | 817.66 ± 1 | 812.74 ± 1 | 807.9 ± 1 | 802.97 ± 1
